Measured values from patent US12473299B2, “Cross-linked nucleoside and nucleotide using same” (Osaka University, priority 2020, dated 2025).
Entries after “also recorded” stand apart in the source; their conditions may differ. [BANA] = cross-linked (bridged) nucleoside of the invention; l = locked nucleic acid (LNA); d = 2'-deoxy (DNA)

Test system: mice (C57BL/6J, male)
Experiment: Toxicity reducing effect: serum AST/ALT and death in mice
Type: in vivo
Details: 20 mg/kg intraperitoneally
Experimental: The test oligonucleotides (20 mg/kg) shown in Table 45 were administered intraperitoneally to six-week-old mice (C57BL/6J, male) (5 mice/group). After 96 hours, blood was collected under inhalation anesthesia (isoflurane), and the mice were exsanguinated. Then, the activities of aspartate transaminase (AST) and alanine transaminase (ALT) in serum were measured using an automated analyzer (FUJI DRI-CHEM 4000V manufactured by FUJIFILM).

[1] = 5 mice/group, serum after 96 hours, Means ± SD

Row | Substance | ALT [1] | AST [1] | increase in ALT and AST (after 96 hours, versus saline) | Remarks (death of mice) (5 mice/group, 96 hours)
1 | 5′-d(^LG^T^T^a^t^g^c^c^a^c^c^^LC^T^^LA)-3′ (antisense GTTATGCCACCCTA; sugars from the 5' end l[BANA][BANA]ddddddddl[BANA]l, all phosphorothioate, methylation of C not given here) [(28), T: BANA-T3] | 36.8 ± 9.5 IU/L | 223.2 ± 102.6 IU/L | almost no increase in ALT and AST | –
2 | 5′-d(^LG^^LT^^LT^t^g^c^c^a^c^c^^LC^^LT^^LA)-3′ (antisense GTTATGCCACCCTA; sugars from the 5' end l3 d8 l3, all phosphorothioate, methylation of C not given here) [(29), reference compound] | – | – | – | all of the five mice died; also recorded: All 5 died
